“And” between values parts separate entries of the source, which are not always exact repeats. Equal entries are not always repeated. Inconclusive results and toxic doses are left out.
Test system: BDF1 mice, intracerebral L1210 leukemia, survival T/C
Assay: NCI In Vivo Anticancer Drug Screen. Data for tumor model L1210 Leukemia (intracerebral) in B6D2F1 (BDF1) mice
Settings: higher = longer survival
In short: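 Tumour was transplanted, animals received compound or vehicle, then survival in each group was measured and treated divided by control.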

[1] = endpoint: mean survival time, dose: 13.0 mg/kg/injection, schedule: Q01DX001 (ip), vehicle: carboxymethylcellulose (CMC)
[2] = endpoint: mean survival time, dose: 54.0 mg/kg/injection, schedule: Q01DX001 (ip), vehicle: other

In the case of `O=NN(CCCl)C(=O)N[C@H]1CCCC[C@@H]1Cl`, the T/C (endpoint: mean survival time, dose: 5.0 mg/kg/injection, schedule: Q01DX001 (ip), vehicle: other) is reported as 102 % of control and 96 % of control, the T/C (endpoint: mean survival time, dose: 10.0 mg/kg/injection, schedule: Q01DX001 (ip), vehicle: other) is reported as 106 % of control and 113 % of control and the T/C [1] is reported as 120 % of control. For the same molecule, the T/C (endpoint: mean survival time, dose: 13.75 mg/kg/injection, schedule: Q01DX001 (oral), vehicle: other) was 190 % of control and 226 % of control and 230 % of control, the T/C (endpoint: mean survival time, dose: 15.25 mg/kg/injection, schedule: Q01DX001 (ip), vehicle: other) was 158 % of control and 165 % of control and 216 % of control and the T/C (endpoint: mean survival time, dose: 19.0 mg/kg/injection, schedule: Q01DX001 (ip), vehicle: carboxymethylcellulose (CMC)) was 152 % of control. The T/C (endpoint: mean survival time, dose: 20.0 mg/kg/injection, schedule: Q01DX001 (ip), vehicle: other) was 175 % of control and 181 % of control, the T/C (endpoint: mean survival time, dose: 26.0 mg/kg/injection, schedule: Q01DX001 (ip), vehicle: carboxymethylcellulose (CMC)) was 164 % of control and 221 % of control and the T/C (endpoint: mean survival time, dose: 27.5 mg/kg/injection, schedule: Q01DX001 (oral), vehicle: other) was 315 % of control and 337 % of control and 442 % of control. The T/C (endpoint: mean survival time, dose: 30.5 mg/kg/injection, schedule: Q01DX001 (ip), vehicle: carboxymethylcellulose (CMC)) was 163 % of control, the T/C (endpoint: mean survival time, dose: 30.5 mg/kg/injection, schedule: Q01DX001 (ip), vehicle: other) was 278 % of control and 293 % of control and 361 % of control and the T/C (endpoint: mean survival time, dose: 40.0 mg/kg/injection, schedule: Q01DX001 (ip), vehicle: carboxymethylcellulose (CMC)) was 228 % of control and 310 % of control. The T/C (endpoint: mean survival time, dose: 41.0 mg/kg/injection, schedule: Q01DX001 (ip), vehicle: other) was 317 % of control and 391 % of control, the T/C (endpoint: mean survival time, dose: 46.0 mg/kg/injection, schedule: Q01DX001 (ip), vehicle: carboxymethylcellulose (CMC)) was 284 % of control and the T/C (endpoint: mean survival time, dose: 55.0 mg/kg/injection, schedule: Q01DX001 (oral), vehicle: other) was 184 % of control and 271 % of control and 351 % of control. For the same molecule, the T/C (endpoint: mean survival time, dose: 60.0 mg/kg/injection, schedule: Q01DX001 (ip), vehicle: carboxymethylcellulose (CMC)) was 297 % of control, the T/C (endpoint: mean survival time, dose: 61.0 mg/kg/injection, schedule: Q01DX001 (ip), vehicle: carboxymethylcellulose (CMC)) was 274 % of control and the T/C (endpoint: mean survival time, dose: 61.0 mg/kg/injection, schedule: Q01DX001 (ip), vehicle: other) was 178 % of control and 254 % of control. For the same molecule, the T/C (endpoint: mean survival time, dose: 83.0 mg/kg/injection, schedule: Q01DX001 (ip), vehicle: other) was 270 % of control and 419 % of control.

`O=NN1CCCNC1=O` was tested, and the T/C (endpoint: mean survival time, dose: 75.0 mg/kg/injection, schedule: Q01DX001 (ip), vehicle: carboxymethylcellulose (CMC)) was 119 % of control, the T/C (endpoint: mean survival time, dose: 111.0 mg/kg/injection, schedule: Q01DX001 (ip), vehicle: carboxymethylcellulose (CMC)) was 117 % of control and the T/C (endpoint: mean survival time, dose: 150.0 mg/kg/injection, schedule: Q01DX001 (ip), vehicle: carboxymethylcellulose (CMC)) was 153 % of control. The T/C (endpoint: mean survival time, dose: 167.0 mg/kg/injection, schedule: Q01DX001 (ip), vehicle: carboxymethylcellulose (CMC)) was 186 % of control and the T/C (endpoint: mean survival time, dose: 250.0 mg/kg/injection, schedule: Q01DX001 (ip), vehicle: carboxymethylcellulose (CMC)) was 91 % of control.

For `O=NN(CCBr)C(=O)NC1CCCCC1`, the T/C (endpoint: mean survival time, dose: 137.0 mg/kg/injection, schedule: Q01DX001 (ip), vehicle: carboxymethylcellulose (CMC)) was 108 % of control and the T/C (endpoint: mean survival time, dose: 345.0 mg/kg/injection, schedule: Q01DX001 (ip), vehicle: carboxymethylcellulose (CMC)) was 224 % of control.

With `O=NN(CCF)C(=O)NC1CCSCC1` the T/C (endpoint: mean survival time, dose: 3.7 mg/kg/injection, schedule: Q01DX001 (ip), vehicle: other) was 114 % of control and 123 % of control, the T/C (endpoint: mean survival time, dose: 15.0 mg/kg/injection, schedule: Q01DX001 (ip), vehicle: other) was 211 % of control and 223 % of control and the T/C (endpoint: mean survival time, dose: 24.0 mg/kg/injection, schedule: Q01DX001 (ip), vehicle: other) was 271 % of control. The T/C (endpoint: mean survival time, dose: 31.0 mg/kg/injection, schedule: Q01DX001 (ip), vehicle: other) was 460 % of control and 477 % of control, the T/C (endpoint: mean survival time, dose: 36.0 mg/kg/injection, schedule: Q01DX001 (ip), vehicle: other) was 276 % of control and the T/C [2] was 303 % of control. For the same molecule, the T/C (endpoint: mean survival time, dose: 62.0 mg/kg/injection, schedule: Q01DX001 (ip), vehicle: other) was 380 % of control.

`CS(=O)(=O)Nc1ccc(Nc2c3ccccc3nc3cc(Cl)ccc23)cc1` was tested, and the T/C (endpoint: mean survival time, dose: 10.0 mg/kg/injection, schedule: Q01DX009 (ip), vehicle: saline) was 99 % of control, the T/C (endpoint: mean survival time, dose: 10.0 mg/kg/injection, schedule: Q01DX009 (sc), vehicle: saline) was 99 % of control and the T/C (endpoint: mean survival time, dose: 20.0 mg/kg/injection, schedule: Q01DX009 (ip), vehicle: saline) was 98 % of control. The T/C (endpoint: mean survival time, dose: 20.0 mg/kg/injection, schedule: Q01DX009 (sc), vehicle: saline) was 102 % of control, the T/C (endpoint: mean survival time, dose: 40.0 mg/kg/injection, schedule: Q01DX009 (ip), vehicle: saline) was 106 % of control and the T/C (endpoint: mean survival time, dose: 40.0 mg/kg/injection, schedule: Q01DX009 (sc), vehicle: saline) was 114 % of control. The T/C (endpoint: mean survival time, dose: 80.0 mg/kg/injection, schedule: Q01DX009 (ip), vehicle: saline) was 91 % of control and the T/C (endpoint: mean survival time, dose: 80.0 mg/kg/injection, schedule: Q01DX009 (sc), vehicle: saline) was 114 % of control.

In the case of `CC(=O)OCC1OC(n2cnc3c(=S)nc(N)[nH]c32)C(OC(C)=O)C1OC(C)=O` (stereo unspecified), the T/C (endpoint: mean survival time, dose: 37.5 mg/kg/injection, schedule: Q01DX Z (ip), vehicle: other) is reported as 122 % of control.

For `C[C@H]1CN1C1=CC(=O)C(N2C[C@@H]2C)=CC1=O`, the T/C (endpoint: mean survival time, dose: 8.0 mg/kg/injection, schedule: Q01DX009 (ip), vehicle: saline) was 90 % of control.

With `OC(C1CO1)C(O)C1CO1` (stereo unspecified) the T/C (endpoint: mean survival time, dose: 0.65 mg/kg/injection, schedule: Q01DX009 (ip), vehicle: water) was 96 % of control, the T/C (endpoint: mean survival time, dose: 1.0 mg/kg/injection, schedule: Q01DX009 (ip), vehicle: saline) was 109 % of control and 120 % of control and the T/C (endpoint: mean survival time, dose: 1.08 mg/kg/injection, schedule: Q01DX009 (ip), vehicle: water) was 110 % of control. The T/C (endpoint: mean survival time, dose: 1.8 mg/kg/injection, schedule: Q01DX009 (ip), vehicle: water) was 123 % of control, the T/C (endpoint: mean survival time, dose: 2.0 mg/kg/injection, schedule: Q01DX009 (ip), vehicle: saline) was 92 % of control and the T/C (endpoint: mean survival time, dose: 2.0 mg/kg/injection, schedule: Q03HX024 (ip), vehicle: saline) was 87 % of control. The T/C (endpoint: mean survival time, dose: 2.5 mg/kg/injection, schedule: Q01DX001 (ip), vehicle: water) was 109 % of control, the T/C (endpoint: mean survival time, dose: 4.0 mg/kg/injection, schedule: Q01DX009 (ip), vehicle: saline) was 103 % of control and 92 % of control and the T/C (endpoint: mean survival time, dose: 20.0 mg/kg/injection, schedule: Q01DX001 (ip), vehicle: water) was 104 % of control. For the same molecule, the T/C (endpoint: mean survival time, dose: 40.0 mg/kg/injection, schedule: Q01DX001 (ip), vehicle: water) was 102 % of control, the T/C (endpoint: median survival time, dose: 0.5 mg/kg/injection, schedule: Q01DX001 (oral), vehicle: saline) was 106 % of control and the T/C (endpoint: median survival time, dose: 4.0 mg/kg/injection, schedule: Q01DX001 (oral), vehicle: saline) was 115 % of control. The T/C (endpoint: median survival time, dose: 8.0 mg/kg/injection, schedule: Q01DX001 (oral), vehicle: saline) was 97 % of control and the T/C (endpoint: median survival time, dose: 16.0 mg/kg/injection, schedule: Q01DX001 (oral), vehicle: saline) was 86 % of control.

With `O=C(Nc1ccc(C2=NCCCN2)cc1)c1ccc(C(=O)Nc2ccc(C3=NCCCN3)cc2)cc1` the T/C (endpoint: mean survival time, dose: 1.25 mg/kg/injection, schedule: Q01DX Z (ip), vehicle: carboxymethylcellulose (CMC)) was 107 % of control, the T/C (endpoint: mean survival time, dose: 2.5 mg/kg/injection, schedule: Q01DX Z (ip), vehicle: carboxymethylcellulose (CMC)) was 107 % of control and the T/C (endpoint: mean survival time, dose: 5.0 mg/kg/injection, schedule: Q01DX Z (ip), vehicle: carboxymethylcellulose (CMC)) was 114 % of control. The T/C (endpoint: mean survival time, dose: 31.0 mg/kg/injection, schedule: Q01DX Z (ip), vehicle: carboxymethylcellulose (CMC)) was 104 % of control.

In the case of `COc1cc(NS(C)(=O)=O)ccc1Nc1c2ccccc2nc2c(C)cccc12`, the T/C (endpoint: mean survival time, dose: 2.5 mg/kg/injection, schedule: Q01DX009 (ip), vehicle: water) is reported as 116 % of control and 113 % of control, the T/C (endpoint: mean survival time, dose: 2.5 mg/kg/injection, schedule: Q01DX009 (sc), vehicle: water) is reported as 112 % of control and 111 % of control and the T/C (endpoint: mean survival time, dose: 5.0 mg/kg/injection, schedule: Q01DX009 (ip), vehicle: water) is reported as 112 % of control. The T/C (endpoint: mean survival time, dose: 5.0 mg/kg/injection, schedule: Q01DX009 (sc), vehicle: water) was 105 % of control and 104 % of control and the T/C (endpoint: mean survival time, dose: 10.0 mg/kg/injection, schedule: Q01DX009 (sc), vehicle: water) was 103 % of control.

For `O=NN(CCF)C(=O)NC1CCCCC1`, the T/C [1] was 120 % of control, the T/C (endpoint: mean survival time, dose: 13.5 mg/kg/injection, schedule: Q01DX001 (ip), vehicle: other) was 166 % of control and 214 % of control and 233 % of control and the T/C (endpoint: mean survival time, dose: 13.5 mg/kg/injection, schedule: Q01DX001 (oral), vehicle: other) was 253 % of control and 270 % of control and 284 % of control. For the same molecule, the T/C (endpoint: mean survival time, dose: 20.0 mg/kg/injection, schedule: Q01DX001 (ip), vehicle: carboxymethylcellulose (CMC)) was 180 % of control, the T/C (endpoint: mean survival time, dose: 27.0 mg/kg/injection, schedule: Q01DX001 (ip), vehicle: other) was 156 % of control and 373 % of control and 379 % of control and the T/C (endpoint: mean survival time, dose: 27.0 mg/kg/injection, schedule: Q01DX001 (oral), vehicle: other) was 325 % of control and 352 % of control and 462 % of control. For the same molecule, the T/C (endpoint: mean survival time, dose: 30.0 mg/kg/injection, schedule: Q01DX001 (ip), vehicle: carboxymethylcellulose (CMC)) was 290 % of control and 322 % of control, the T/C (endpoint: mean survival time, dose: 45.0 mg/kg/injection, schedule: Q01DX001 (ip), vehicle: carboxymethylcellulose (CMC)) was 293 % of control and 337 % of control and the T/C [2] was 190 % of control and 322 % of control and 367 % of control. For the same molecule, the T/C (endpoint: mean survival time, dose: 54.0 mg/kg/injection, schedule: Q01DX001 (oral), vehicle: other) was 203 % of control and 379 % of control and the T/C (endpoint: mean survival time, dose: 67.0 mg/kg/injection, schedule: Q01DX001 (ip), vehicle: carboxymethylcellulose (CMC)) was 275 % of control.

With `Nc1nc2n[nH]nc2c(=O)[nH]1` the T/C (endpoint: mean survival time, dose: 89.0 mg/kg/injection, schedule: Q01DX015 (ip), vehicle: water) was 170 % of control, the T/C (endpoint: mean survival time, dose: 117.0 mg/kg/injection, schedule: Q01DX001 (ip), vehicle: carboxymethylcellulose (CMC)) was 108 % of control and the T/C (endpoint: mean survival time, dose: 179.0 mg/kg/injection, schedule: Q01DX001 (ip), vehicle: carboxymethylcellulose (CMC)) was 107 % of control. The T/C (endpoint: mean survival time, dose: 267.0 mg/kg/injection, schedule: Q01DX001 (ip), vehicle: carboxymethylcellulose (CMC)) was 105 % of control.

Reference: PubChem BioAssay AID252 (DTP/NCI, 2004)
